Measured values published in patent US20260265195A1, “SARM1 MODULATORS, PREPARATIONS, AND USES THEREOF” (SIRONAX LTD, priority 2022, published 2026).

Biological target: T1, SARM1 (50-724) (Homo sapiens, UniProt Q6SZW1)
T1 construct: Purified SARM1 (50-724) with a final concentration of 2 nM
T1 sequence (Q6SZW1 50-724): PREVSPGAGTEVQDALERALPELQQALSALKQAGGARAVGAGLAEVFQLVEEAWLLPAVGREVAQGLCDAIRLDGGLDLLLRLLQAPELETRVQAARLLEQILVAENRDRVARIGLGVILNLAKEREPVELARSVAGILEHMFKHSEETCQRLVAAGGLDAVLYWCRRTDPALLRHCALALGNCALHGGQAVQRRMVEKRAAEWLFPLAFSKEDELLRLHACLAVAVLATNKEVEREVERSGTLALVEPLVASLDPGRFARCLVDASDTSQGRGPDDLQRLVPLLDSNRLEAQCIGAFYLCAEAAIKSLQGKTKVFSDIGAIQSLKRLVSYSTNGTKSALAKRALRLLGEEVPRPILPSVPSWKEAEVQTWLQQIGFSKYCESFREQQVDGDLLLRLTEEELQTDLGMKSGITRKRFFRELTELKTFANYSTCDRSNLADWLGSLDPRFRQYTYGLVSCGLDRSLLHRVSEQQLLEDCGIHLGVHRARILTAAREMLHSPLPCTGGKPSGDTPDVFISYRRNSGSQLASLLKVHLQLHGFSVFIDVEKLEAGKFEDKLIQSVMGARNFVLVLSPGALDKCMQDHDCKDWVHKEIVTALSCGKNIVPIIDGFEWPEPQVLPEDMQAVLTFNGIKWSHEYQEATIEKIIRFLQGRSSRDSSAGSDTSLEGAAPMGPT
Assay: SARM1 (50-724) enzymatic assay (NMN-activated NAD+ hydrolysis, LC-MS/MS readout)
Type: biochemical
Conditions: purified SARM1 (50-724) 2 nM, 200 μM NMN activator, 100 μM NAD+ substrate, 1 h at room temperature, read-out: IC50 (SARM1 inhibitory activity)
In short: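 Purified human SARM1 (50-724), 2 nM final in DPBS, pre-incubated 15 min at RT with compound (1% DMSO), then started with 200 μM NMN activator and 100 μM NAD+. After 1 h at RT, quenched with 70% acetonitrile; analysed by LC-MS/MS.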

Cc1cccc(N(CCO)C(=O)c2nc3cc(C(F)(F)F)ccc3[nH]2)c1F [Compound 172, N-(2-fluoro-3-methylphenyl)-N-(2-hydroxyethyl)-5-(trifluoromethyl)-1H-benzo[d]imidazole-2-carboxamide]
IC50: 0.501 to 1 µM

O=C(c1nc2cc(C(F)(F)F)ccc2[nH]1)N(CC1(CO)COC1)c1cccc(Cl)c1Cl [Compound 174, N-(2,3-dichlorophenyl)-N-((3-(hydroxymethyl)oxetan-3-yl)methyl)-5-(trifluoromethyl)-1H-benzo[d]imidazole-2-carboxamido]
IC50: ≤ 0.1 µM

Cc1c(Cl)cncc1N(CCO)C(=O)c1nc2c(Cl)c(Cl)ccc2[nH]1 [Compound 175]
IC50: 0.501 to 1 µM

CN(C(=O)c1nc2c(C3CC(O)C3)cccc2[nH]1)C1CCCC1 (stereo not shown) [Compound 176, N-cyclopentyl-4-((1s,3s)-3-hydroxycyclobutyl)-N-methyl-1H-benzo[d]imidazole-2-carboxamide]
IC50: ≥ 1 µM

O=C(c1nc2cc(C(F)(F)F)ccc2[nH]1)N(CC1CC(O)C1)c1cccc(Cl)c1Cl (stereo not shown) [Compound 177, N-(2,3-dichlorophenyl)-N-((3-hydroxycyclobutyl)methyl)-5-(trifluoromethyl)-1H-benzo[d]imidazole-2-carboxamide]
IC50: ≤ 0.1 µM

O=C(c1nc2cc(C(F)(F)F)ccc2[nH]1)N(CCOC1COC1)c1cccc(Cl)c1Cl [Compound 178, N-(2,3-dichlorophenyl)-N-(2-(oxetan-3-yloxy)ethyl)-5-(trifluoromethyl)-1H-benzo[d]imidazole-2-carboxamide]
IC50: ≤ 0.1 µM

O=C(c1nc2cc(C(F)(F)F)ccc2[nH]1)N(CCN1CC(O)C1)c1cccc(Cl)c1Cl [Compound 179, N-(2,3-dichlorophenyl)-N-(2-(3-hydroxyazetidin-1-yl)ethyl)-5-(trifluoromethyl)-1H-benzo[d]imidazole-2-carboxamide]
IC50: ≤ 0.1 µM

O=C(c1nc2cc(C(F)(F)F)ccc2[nH]1)N(CC1CS(=O)(=O)C1)c1cccc(Cl)c1Cl [Compound 180, N-(2,3-dichlorophenyl)-N-((1,1-dioxidothietan-3-yl)methyl)-5-(trifluoromethyl)-1H-benzo[d]imidazole-2-carboxamide]
IC50: ≤ 0.1 µM

CC1(CN(C(=O)c2nc3cc(C(F)(F)F)ccc3[nH]2)c2cccc(Cl)c2Cl)COC1 [Compound 181, N-(2,3-dichlorophenyl)-N-((3-methyloxetan-3-yl)methyl)-5-(trifluoromethyl)-1H-benzo[d]imidazole-2-carboxamide]
IC50: ≤ 0.1 µM

CNC(=O)CN(C(=O)c1nc2cc(C(F)(F)F)ccc2[nH]1)c1cccc(Cl)c1Cl [Compound 182, N-(2,3-dichlorophenyl)-N-(2-(methylamino)-2-oxoethyl)-5-(trifluoromethyl)-1H-benzo[d]imidazole-2-carboxamide]
IC50: ≤ 0.1 µM

CC(C)(O)c1ccc2[nH]c(C(=O)N(CC3(F)COC3)c3cccc(Cl)c3Cl)nc2c1 [Compound 183]
IC50: ≤ 0.1 µM

Cc1c(Cl)cncc1N(CC1(F)COC1)C(=O)c1nc2cc(C(F)(F)F)ccc2[nH]1 [Compound 184, N-(5-chloro-4-methylpyridin-3-yl)-N-((3-fluorooxetan-3-yl)methyl)-5-(trifluoromethyl)-1H-benzo[d]imidazole-2-carboxamide]
IC50: 0.101 to 0.5 µM

O=C(c1nc2cc(C(F)(F)F)ccc2[nH]1)N(CC(F)(F)CO)c1cccc(F)c1Cl [Compound 185, N-(2-chloro-3-fluorophenyl)-N-(2,2-difluoro-3-hydroxypropyl)-5-(trifluoromethyl)-1H-benzo[d]imidazole-2-carboxamide]
IC50: ≤ 0.1 µM

O=C(c1nc2cc(C(F)(F)F)ccc2[nH]1)N(CC1(F)COC1)c1cccc(F)c1Cl [Compound 186, N-(2-chloro-3-fluorophenyl)-N-((3-fluorooxetan-3-yl)methyl)-5-(trifluoromethyl)-1H-benzo[d]imidazole-2-carboxamide]
IC50: ≤ 0.1 µM

C=C(c1cn[nH]c1)c1ccc2[nH]c(C(=O)N(CCO)c3cccc(Cl)c3Cl)nc2c1 [Compound 187]
IC50: ≤ 0.1 µM

Cc1nsc(N(CC2(F)COC2)C(=O)c2nc3cc(C(F)(F)F)ccc3[nH]2)c1Cl [Compound 188, N-(4-chloro-3-methylisothiazol-5-yl)-N-((3-fluorooxetan-3-yl)methyl)-5-(trifluoromethyl)-1H-benzo[d]imidazole-2-carboxamide]
IC50: 0.101 to 0.5 µM

O=C(c1nc2cc(C3CC3)ccc2[nH]1)N(CCO)c1cccc(Cl)c1Cl [Compound 190]
IC50: ≤ 0.1 µM

O=C(c1nc2cc(C(F)(F)F)ccc2[nH]1)N(c1cccc(Cl)c1Cl)C1CC(O)C1 (stereo not shown) [Compound 193, N-(2,3-dichlorophenyl)-N-(3-hydroxycyclobutyl)-5-(trifluoromethyl)-1H-benzo[d]imidazole-2-carboxamide]
IC50: ≤ 0.1 µM

O=C(c1nc2cc(C(F)(F)F)ccc2[nH]1)N(CC1CC(O)C1)c1cccc(F)c1Cl (stereo not shown) [Compound 194, N-(2-chloro-3-fluorophenyl)-N-((3-hydroxycyclobutyl)methyl)-5-(trifluoromethyl)-1H-benzo[d]imidazole-2-carboxamide]
IC50: ≤ 0.1 µM

CC1(c2ccc3[nH]c(C(=O)N(CCO)c4cccc(Cl)c4Cl)nc3c2)COC1 [Compound 195]
IC50: ≤ 0.1 µM

O=C(c1nc2cc(C(F)(F)F)ccc2[nH]1)N(CC1(O)CC1)c1cccc(Cl)c1Cl [Compound 197, N-(2,3-dichlorophenyl)-N-((1-hydroxycyclopropyl)methyl)-5-(trifluoromethyl)-1H-benzo[d]imidazole-2-carboxamide]
IC50: ≤ 0.1 µM

CC(C)(O)CCN(C(=O)c1nc2cc(C(F)(F)F)ccc2[nH]1)c1cccc(Cl)c1Cl [Compound 198, N-(2,3-dichlorophenyl)-N-(3-hydroxy-3-methylbutyl)-5-(trifluoromethyl)-1H-benzo[d]imidazole-2-carboxamide]
IC50: ≤ 0.1 µM

O=C(c1nc2cc(C(F)(F)F)ccc2[nH]1)N(CCN1CCCS1(=O)=O)c1cccc(Cl)c1Cl [Compound 199, N-(2,3-dichlorophenyl)-N-(2-(1,1-dioxidoisothiazolidin-2-yl)ethyl)-5-(trifluoromethyl)-1H-benzo[d]imidazole-2-carboxamide]
IC50: ≤ 0.1 µM

COCC1(CN(C(=O)c2nc3cc(C(F)(F)F)ccc3[nH]2)c2cccc(Cl)c2Cl)COC1 [Compound 200]
IC50: ≤ 0.1 µM

CC(C)(C)c1ccc2[nH]c(C(=O)N(CCO)c3cccc(F)c3Cl)nc2c1 [Compound 201]
IC50: ≤ 0.1 µM

O=C(CN(C(=O)c1nc2cc(C(F)(F)F)ccc2[nH]1)c1cccc(Cl)c1Cl)N1CCC1 [Compound 202, N-(2-(azetidin-1-yl)-2-oxoethyl)-N-(2,3-dichlorophenyl)-5-(trifluoromethyl)-1H-benzo[d]imidazole-2-carboxamide]
IC50: ≤ 0.1 µM

O=C(c1nc2cc(C(F)(F)F)ccc2[nH]1)N(CCO)c1ccc(F)c(F)c1Cl [Compound 203, N-(2-chloro-3,4-difluorophenyl)-N-(2-hydroxyethyl)-5-(trifluoromethyl)-1H-benzo[d]imidazole-2-carboxamide]
IC50: ≤ 0.1 µM

COC(=O)C(C)(C)c1ccc2[nH]c(C(=O)N(CC3(F)COC3)c3cccc(Cl)c3Cl)nc2c1 [Compound 204]
IC50: ≤ 0.1 µM

CC(C)(CO)c1ccc2[nH]c(C(=O)N(CC3(F)COC3)c3cccc(Cl)c3Cl)nc2c1 [Compound 205]
IC50: ≤ 0.1 µM

O=C(c1nc2cc(C(F)(F)F)cc(F)c2[nH]1)N(CCO)c1cccc(Cl)c1Cl [Compound 206]
IC50: ≤ 0.1 µM

COc1ccc(Cl)c(N(CC(F)(F)CO)C(=O)c2nc3cc(C(F)(F)F)ccc3[nH]2)n1 [Compound 207, N-(3-chloro-6-methoxypyridin-2-yI)-N-(2,2-difluoro-3-hydroxypropyl)-5-(trifluoromethyl)-1H-benzo[d]imidazole-2-carboxamide]
IC50: 0.101 to 0.5 µM

CC(C)(C#N)c1ccc2[nH]c(C(=O)N(CC(F)(F)CO)c3ccc(F)c(F)c3Cl)nc2c1 [Compound 208]
IC50: ≤ 0.1 µM

CCOC(=O)C(F)(F)CN(C(=O)c1nc2cc(C3CC3)ccc2[nH]1)c1cccc(F)c1Cl [Compound 209]
IC50: ≤ 0.1 µM

O=C(c1nc2cc(C3CC3)ccc2[nH]1)N(CC(F)(F)CO)c1cccc(F)c1Cl [Compound 210]
IC50: ≤ 0.1 µM

O=C(c1nc2cc(C(F)(F)F)cc(F)c2[nH]1)N(CC(F)(F)CO)c1cccc(F)c1Cl [Compound 211]
IC50: ≤ 0.1 µM

O=C(c1nc2cc(C(F)(F)F)ccc2[nH]1)N(CC(F)(F)CO)c1ccc(F)c(F)c1Cl [Compound 212, N-(2-chloro-3,4-difluorophenyl)-N-(2,2-difluoro-3-hydroxypropyl)-5-(trifluoromethyl)-1H-benzo[d]imidazole-2-carboxamide]
IC50: ≤ 0.1 µM

O=C(c1nc2cc(C(F)(F)F)ccc2[nH]1)N(CCN1CCOCC1)c1cccc(F)c1Cl [Compound 214, N-(2-chloro-3-fluorophenyl)-N-(2-morpholinoethyl)-5-(trifluoromethyl)-1H-benzo[d]imidazole-2-carboxamide]
IC50: 0.101 to 0.5 µM
